The target of data set [1] is T1, GnRH receptors (Rattus norvegicus, UniProt P30969).
T1 construct: Anterior lobes of the pituitary glands were isolated from forty Wistar rats; from tissue; host or cells: anterior lobe of the pituitary gland, male Wistar rats
T1 sequence (P30969 1-327): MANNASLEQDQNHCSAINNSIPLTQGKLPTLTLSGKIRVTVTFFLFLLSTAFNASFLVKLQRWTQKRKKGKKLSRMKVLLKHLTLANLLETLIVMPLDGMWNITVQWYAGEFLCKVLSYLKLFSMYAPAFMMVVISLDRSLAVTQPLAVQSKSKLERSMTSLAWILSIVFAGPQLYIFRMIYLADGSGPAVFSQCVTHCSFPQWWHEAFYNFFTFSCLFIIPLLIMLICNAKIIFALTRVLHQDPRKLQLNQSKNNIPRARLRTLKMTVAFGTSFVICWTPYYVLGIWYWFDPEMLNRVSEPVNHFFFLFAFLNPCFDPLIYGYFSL
Kind of data set: 125I-leuprorelin binding inhibition, rat pituitary anterior lobe membrane fraction. To be noted: for inhibition at 1 µM: read-out: binding inhibition rate (%) Rat (1 μM); for IC50: Hill plot. The method, then: After stirring, 10 μl of 0.001% H2O2 was added, and a reaction was carried out at room temperature for 20 minutes. By adding 700 μl of a 0.05% TFA (trifluoroacetic acid) solution, the reaction was stopped, followed by purification by reversed-phase HPLC. […] Anterior lobes of the pituitary glands were isolated from forty Wistar rats (8 weeks old, male), and washed with ice-cooled homogenate buffer [25 mM Tris (tris(hydroxymethyl)aminomethane)-HCl, 0.3M sucrose, 1 mM EGTA (glycol-etherdiamine-N,N,N′,N′-tetraacetic acid), 0.25 mM PMSF (phenylmethylsulfonyl fluoride), 10 U/ml aprotinin, […] pepstatin, […] leupeptin, […], 0.03% sodium azide, pH 7.5]. The pituitary tissue was floated in 2 ml of the homogenate buffer and homogenized using a Polytron homogenizer. The homogenate was centrifuged at 700×g for 15 minutes. The supernatant was taken in an ultracentrifuge tube and centrifuged at 100, 000×g for 1 hour to provide a membrane fraction pellet. This pellet was suspended in 2 ml of assay buffer [25 mM Tris-HCl, 1 mM EDTA (ethylenediaminetetraacetic acid), 0.1% BSA (bovine serum albumin), 0.25 mM PMSF, 1 mg/ml pepstatin, 20 mg/ml leupeptin, […], 0.03% sodium azide, pH 7.5) and the suspension was centrifuged at 100,000×g for 1 hour. The membrane fraction recovered as a pellet was resuspended in 10 ml of assay buffer, divided into portions, preserved at −80° C. and thawed when needed. […] Where the rat or bovine pituitary anterior lobe membrane fraction was used, the reaction was conducted at 4° C. for 90 minutes. Where the membrane fraction of the CHO with human GnRH receptors expressed was used, the reaction was carried out at 25° C. for 60 minutes. After each reaction, the reaction mixture was aspirated and filtered through a polyethyleneimine-treated Whatman glass filter (GF-F). […] The expression (TB-SB)/(TB-NSB)×100 (where SB= radioactivity with the compound added, TB=maximum bound radioactivity, NSB=nonspecifically bound radioactivity) was calculated to find the binding inhibition rate (%) of each test compound.

For data set [2], the target named is T2, human GnRH receptor (Homo sapiens, UniProt P30968).
T2 construct: expressed in transfected cells; host or cells: CHO (Chinese hamster ovarian) cells
T2 sequence (P30968 1-328): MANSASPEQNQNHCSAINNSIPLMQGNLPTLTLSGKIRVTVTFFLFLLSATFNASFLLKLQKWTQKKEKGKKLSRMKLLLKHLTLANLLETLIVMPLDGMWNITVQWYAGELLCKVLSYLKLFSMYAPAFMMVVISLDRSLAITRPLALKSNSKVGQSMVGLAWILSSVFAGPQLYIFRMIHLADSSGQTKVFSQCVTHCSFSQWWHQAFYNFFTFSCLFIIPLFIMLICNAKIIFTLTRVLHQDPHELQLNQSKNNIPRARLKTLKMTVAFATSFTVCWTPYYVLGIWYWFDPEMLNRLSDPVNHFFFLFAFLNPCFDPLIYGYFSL
Kind of data set: 125I-leuprorelin binding inhibition, CHO cell membrane fraction containing human GnRH receptor. As to the method:
After stirring, 10 μl of 0.001% H2O2 was added, and a reaction was carried out at room temperature for 20 minutes. By adding 700 μl of a 0.05% TFA (trifluoroacetic acid) solution, the reaction was stopped, followed by purification by reversed-phase HPLC. […] To the cell pellet, 10 ml of a cell homogenate buffer (10 mM NaHCO3, 5 mM EDTA, pH 7.5) was added, followed by homogenization using the Polytron homogenizer. After centrifugation at 400×g for 15 minutes, the supernatant was transferred to an ultracentrifugation tube and centrifuged at 100,000×g for 1 hour to yield a membrane fraction precipitate. This precipitate was suspended in 2 ml of an assay buffer and centrifuged at 100,000×g for 1 hour. The membrane fraction recovered as a precipitate was again suspended in 20 ml of the assay buffer, dispensed, and stored at −80° C. before use upon thawing. […] Where the rat or bovine pituitary anterior lobe membrane fraction was used, the reaction was conducted at 4° C. for 90 minutes. Where the membrane fraction of the CHO with human GnRH receptors expressed was used, the reaction was carried out at 25° C. for 60 minutes. After each reaction, the reaction mixture was aspirated and filtered through a polyethyleneimine-treated Whatman glass filter (GF-F). […] The expression (TB-SB)/(TB-NSB)×100 (where SB= radioactivity with the compound added, TB=maximum bound radioactivity, NSB=nonspecifically bound radioactivity) was calculated to find the binding inhibition rate (%) of each test compound.

Data set [3] concerns blood LH. In words: Suppression of blood LH in castrated monkeys. In kind it is in vivo, cynomolgus monkeys (Macaca fascicularis). The note with it: castrated male cynomolgus monkeys; 30 mg/kg oral; values only in FIG. 1. The method, then:
The compound produced in Example 1-2 was orally administered to castrated male cynomolgus monkeys (Macaca fascicularis), and blood LH was quantified. The male cynomolgus monkeys, used at 3 years 8 months to 7 years 7 months of age at time of experimentation, had been castrated more than half a year prior to the examination. Test animals [n =2; compound (1) and compound (2)] were given 30 mg/kg (3 ml/kg) of the compound suspended in 0.5% methyl cellulose at a final concentration of 1% by oral administration, and control animals [n=3; control (1), control (2) and control (3)] were given 3 ml/kg of the 0.5% methyl cellulose dispersant alone by oral administration. […]
Plasma LH concentrations were determined by a bioassay using mouse testicular cells. […] The testosterone concentration in the culture supernatant was determined by a radioimmunoassay (CIS Diagnostics Company), and the LH concentration in the test monkey plasma was calculated from the standard curve for the standard equine LH.
For the control (1), the control (2), and the control (3), changes over time in the LH concentrations in each animal are expressed as percent ratios to the respective reference values, which comprise the LH concentrations immediately before administration in each control animal (cynomolgus monkey). […]

[4] abbreviates: rat pituitary anterior lobe membrane fraction, 125I-leuprorelin.

Where two headings read alike, the source gives them in different places.

What is called melting point is the temperature, or range, at which the solid turns liquid. `CC(C)C(=O)c1cn(Cc2c(F)cccc2F)c2sc(-c3ccc(NC(=O)[C@H](C)CO)cc3)c(CN(C)Cc3ccccc3)c2c1=O.Cl` gave a melting point of 214 to 216 °C. Same read-out and setting: then `CC(C)C(=O)c1cn(Cc2c(F)cccc2F)c2sc(-c3ccc(NC(=O)C(C)(C)O)cc3)c(CN(C)Cc3ccccc3)c2c1=O.Cl`, with 213 to 215 °C.

With `CC(C)C(=O)c1cn(Cc2c(F)cccc2F)c2sc(-c3ccc(NC(=O)C4(O)CC4)cc3)c(CN(C)Cc3ccccc3)c2c1=O.Cl`, the melting point was in the range of 220 to 222 °C.

On to `CC(C)C(=O)c1cn(Cc2c(F)cccc2F)c2sc(-c3ccc(NC(=O)CC(C)(C)O)cc3)c(CN(C)Cc3ccccc3)c2c1=O.Cl`, for which the melting point was 216 to 218 °C.

`CONC(=O)Nc1ccc(-c2sc3c(c2CN(C)Cc2ccccc2)c(=O)c(C(=O)C(C)C)cn3Cc2c(F)cccc2F)cc1.Cl` displayed a melting point of 225 to 230 °C. Still for that read-out and setting: for `CC(C)C(=O)c1cn(Cc2c(F)cccc2F)c2sc(-c3ccc(NC(=O)CO)cc3)c(CN(C)Cc3ccccc3)c2c1=O.Cl` the value was 197 to 199 °C. As a reminder, the inhibition is the change of the read-out against control, counted positive when it falls. What is called IC50 is the point on the concentration scale where inhibition reaches its midpoint. Take `CC(C)C(=O)c1cn(Cc2c(F)cccc2F)c2sc(-c3ccc(NC(=O)C4CC4)cc3)c(CN(C)Cc3ccccc3)c2c1=O.Cl` [Example 1-2, 3-(N-benzyl-N-methylaminomethyl)-4,7-dihydro-5-isobutyryl-7-(2,6-difluorobenzyl)-2-(4-cyclopropanecarbonylaminophenyl)-4-oxothieno[2,3-b]pyridine Hydrochloride]: the melting point was 254 to 256 °C. Also, the inhibition at 1 µM in data set [1] (1 μM compound, rat pituitary anterior lobe membrane fraction, 125I-leuprorelin, 4° C., 90 minutes) is 96%. For the same compound, in data set [1] (setting [4]), the IC50 worked out at 0.06 µM. Besides, the inhibition at 20 µM in data set [2] (20 μM compound, CHO membrane fraction with human GnRH receptors, 125I-leuprorelin, 25° C., 60 minutes, read-out: binding inhibition rate (%) Human (20 μM)) came to 102%. The IC50 in data set [2] (CHO membrane fraction with human GnRH receptors, 125I-leuprorelin, Hill plot, read-out: IC50 value (μM) Human) was found to be 0.0001 µM. For the same compound, the “plasma LH concentrations” value in data set [3] is recorded as “suppression of plasma LH concentrations”. `CC(C)C(=O)c1cn(Cc2c(F)cccc2F)c2sc(-c3ccc(NC(=O)C(C)CO)cc3)c(CN(C)Cc3ccccc3)c2c1=O` (stereo not shown) [Example 3, 3-(N-benzyl-N-methylaminomethyl)-4,7-dihydro-5-isobutyryl-7-(2,6-difluorobenzyl)-2-[4-(3-hydroxy-2-methylpropionylamino)phenyl]-4-oxothieno[2,3-b]pyridine]: the melting point lay within 161 to 162 °C. This compound gave a half-inhibitory concentration (IC50) in data set [1] (setting [4]) of 0.6 µM. Also, the inhibition at 1 µM in data set [1] is 62%. The compound also gave an IC50 in data set [2] of 0.0002 µM. Consider `CC(C)C(=O)Nc1ccc(-c2sc3c(c2CN(C)Cc2ccccc2)c(=O)c(C(=O)C(C)(C)O)cn3Cc2c(F)cccc2F)cc1` [Example 7, 3-(N-benzyl-N-methylaminomethyl)-4,7-dihydro-7-(2,6-difluorobenzyl)-2-(4-isobutyrylaminophenyl)-5-(2-hydroxy-2-methylpropionyl)-4-oxothieno[2,3-b]pyridine], for which the melting point was 170 to 172 °C. Still for that read-out and setting: then `CC(C)C(=O)c1cn(Cc2c(F)cccc2F)c2sc(-c3ccc(NC(=O)[C@H](C)CO)cc3)c(CN(C)Cc3ccccc3)c2c1=O` [Example 10-1, (R)-4,7-dihydro-2-[4-(3-hydroxy-2-methylpropionylamino)phenyl]-7-(2,6-difluorobenzyl)-3-(N-benzyl-N-methylaminomethyl)-5-isobutyryl-4-oxothieno[2,3-b]pyridine], with 161 to 162 °C; and `CC(C)C(=O)c1cn(Cc2c(F)cccc2F)c2sc(-c3ccc(NC(=O)C(C)(C)O)cc3)c(CN(C)Cc3ccccc3)c2c1=O` [Example 11-1, 4,7-dihydro-2-[4-(2-hydroxy-2-methylpropionylamino)phenyl]-7-(2,6-difluorobenzyl)-3-(N-benzyl-N-methylaminomethyl)-5-isobutyryl-4-oxothieno[2,3-b]pyridine], with 178 to 180 °C. The same measure, in the same setting: for `CN(Cc1ccccc1)Cc1c(-c2ccc(NC(=O)C3(O)CC3)cc2)sc2c1c(=O)c(C(=O)c1ccccc1)cn2Cc1c(F)cccc1F` [Example 21] the value was 186 to 188 °C. The same measure, in the same setting: then `CN(Cc1ccccc1)Cc1c(-c2ccc(NC(=O)C(C)(C)O)cc2)sc2c1c(=O)c(C(=O)c1ccccc1)cn2Cc1c(F)cccc1F` [Example 22, 3-(N-benzyl-N-methylaminomethyl)-5-benzoyl-7-(2,6-difluorobenzyl)-4,7-dihydro-2-[4-(2-hydroxy-2-methylpropionylamino)phenyl]-4-oxothieno[2,3-b]pyridine], with 222 to 223 °C; and `C[C@H](CO)C(=O)Nc1ccc(-c2sc3c(c2CN(C)Cc2ccccc2)c(=O)c(C(=O)c2ccccc2)cn3Cc2c(F)cccc2F)cc1` [Example 23], with 145 to 146 °C.
